Data set [1] relates to P-gp. Conditions: cited from earlier work.
The test system of data set [2] is OVCAR3 xenograft tumor. Briefly: In vivo tumor growth, OVCAR3 subcutaneous xenograft tumor model. The arrangement: species or system BALB/c nude mice. Conditions: n = 6. The method, then:
(§1) This study, approved by Fudan University Ethics Committee (protocol code: 201904008Z) on 26 April 2019, was conducted in compliance with AAALAC’s International Commission guidelines for laboratory animal evaluation and accreditation. A total of 36 female BALB/c nude mice (6–8 weeks old, weighing 18–20 g) were purchased from Charles River Laboratories (Pinghu, China). The OVCAR3 ovarian cancer cell line (ATCC® HTB-161™) was used to establish human xenografts. OVCAR3 cells (10 × 10^6) suspended in 0.2 mL of Matrigel were subcutaneously inoculated into the dorsal region of each mouse. Tumors were allowed to grow until reaching a volume of ~160 mm^3, typically around 30 days post-inoculation.
(§2) WX390 was prepared in Solvent-1, comprising dimethyl sulfoxide (DMSO): methylcellulose: water at a ratio of 1:1:98 (v/v/v). BYL719 and dorzagliatin were formulated in Solvent-2, consisting of Tween 80: water with 0.5% methylcellulose (MC) solution at a ratio of 0.2:99.8 (v/v). The treatment control was a combination of Solvent-1 and Solvent-2. The test compounds were administered orally as follows: WX390 at 0.2 mg/kg, BYL719 at 25 mg/kg, and dorzagliatin at 10 mg/kg, dissolved in their respective formulations. Due to ethical considerations regarding gavage volume the administration volume across all groups was standardized to 10 μL/g of body weight.
(§3) The experiment involved six treatment groups, each comprising six mice. The groups included: (i) vehicle control, (ii) WX390 (0.2 mg/kg), (iii) BYL719 (25 mg/kg), (iv) dorzagliatin (10 mg/kg), (v) WX390 (0.2 mg/kg) + dorzagliatin (10 mg/kg), and (vi) BYL719 (25 mg/kg) + dorzagliatin (10 mg/kg). All treatments were administered via oral gavage once daily for four weeks. In the combination group of PI3Ki and dorzagliatin, dorzagliatin was administered 30 min prior to PI3Ki.
Tumor dimensions were measured biweekly using a vernier caliper. Tumor volume was calculated using the formula:(1) V=0.5a×b^2 where: • a represents the longest tumor diameter. • b represents the shortest diameter.
The antitumor efficacy of each group was evaluated using TGI or T/C. TGI (%) reflects the rate of tumor growth inhibition and is calculated as follows:(2) TGI%=1−Vend−V0exp/Vend−V0control×100% where: • Vend represents mean tumor volume at the end of treatment in the group. • V0 represents mean tumor volume at the start of treatment in the group. • exp represents the treated groups. • control represents the vehicle control group.
T/C (%) is calculated using the formula:(3) T/C%=TRTV/CRTV×100% where: • TRTV is the Relative Tumor Volume of the treatment group. • CRTV is the Relative Tumor Volume of the negative control group.
The Relative Tumor Volume (RTV) is calculated based on tumor measurement results using the formula:(4) RTV=Vt/V0 where: • V0 is the mean tumor volume at the time of grouping (day 0). • Vt is the mean tumor volume at a given measurement time.
TRTV and CRTV are based on data from the same day.
At the conclusion of the experiment, tumor weights were measured, and the T/C was calculated. Tweight and Cweight represent the tumor weights of the treatment group and the vehicle control group, respectively.

For data set [3] the following is noted: major metabolite BZG791; CYP3A4 to a lesser extent; no reference given; cited from earlier work.
The nature of data set [4]: Plasma pharmacokinetics by LC-MS/MS in OVCAR3 xenograft tumor-bearing nude mice. It counts as in vivo, BALB/c nude mice. Conditions: n = 3; for AUC(0-t) / half-life / Cmax: po, 25 mg/kg; for Cmax: read-out: Cmax. The method, then: as §1, §2, §3
Following the 4-week treatment period, all experimental groups were fasted 6 h before the last administration until the end of the experiment. Water was not restricted during the fasting period. Blood samples were collected at 0, 0.5, 1, 2, 4, and 8 h after administration. Each mouse had 3 blood collection points, with 50 μL of plasma collected at each point. Mice in each group were allocated to two cohorts: The first cohort underwent blood collection at 0, 1, and 2 h post-administration, while the second cohort was sampled at 0.5, 4, and 8 h post-administration. Terminal blood collection at the 2-h time point for the first cohort was performed via cardiac puncture following euthanasia, during which tumor tissues were concurrently harvested from this cohort. Blood samples were processed through centrifugation (4 °C, 1500× g for 10 min) for plasma separation. All plasma and tumor samples were immediately snap-frozen in liquid nitrogen and stored at −80 °C for subsequent analysis.
The extraction of WX390, BYL719, and dorzagliatin from plasma samples was performed using protein precipitation. Internal standards (IS) included SBL-D3, BNSL-D5, and PLPL-D8 for WX390, BYL719, and dorzagliatin, respectively. Plasma samples (20 μL) were mixed with 20 μL of zinc sulfate aqueous solution (0.1 mol/L) and 200 µL of a 50% methanol solution containing three internal standards followed by vortexing for 10 min. The samples were centrifuged at 4 °C (15,000× g for 5 min). The supernatant (180 μL) was transferred to a clean Eppendorf tube, and a 10 μL aliquot was injected into the LC-MS/MS system.
Chromatographic separations were performed using an AB SCIEX Jasper HPLC system coupled with an AB SCIEX Triple Quad 4500MD mass spectrometer (AB SCIEX, USA). A Phenomenex Kinetex C18 column (100 × 3 mm, 2.6 μm) was used at 40 °C. The flow rate was maintained at 0.4 mL/min with a total run time of 4 min. […]

For data set [5] the following is noted: human, in vivo; cited from earlier work.
Data set [6] has as its system CYP3A4. Set-up: method as in ref 31 = [31]; 31. FDA Label of PIQRAY® (Alpelisib) FDA Silver Spring, MD, USA 2019. Conditions: repeated doses of 300 mg BYL719 with midazolam and other substrates, everolimus; cited from earlier work.
The conditions of data set [7]: cited from earlier work.
Where [8] appears, read: based on tumor volume on day 28, vs vehicle.
Where [9] appears, read: female, BALB/c nude, mouse, plasma, PI3Ki measured in combination group with Dorz 10 mg/kg (given 30 min before), WX390 0.2 mg/kg or BYL719 25 mg/kg oral.
The mark [10] stands for this setting: female, BALB/c nude, mouse, plasma, monotherapy group, plasma, oral gavage once daily for four weeks, Dorz 10 mg/kg, WX390 0.2 mg/kg, BYL719 25 mg/kg.

“And” between values parts separate entries of the source, which are not always exact repeats. Equal values may be shown once. Read-outs that look alike come from different tables or passages of the source.

By Tmax is commonly meant the time from dosing to the highest level. Usually AUC(0-t) stands for exposure summed from dosing to a finite time, without extrapolation to infinity. As a reminder, the half-life is the time needed for the level to fall by half in the phase considered. Usually Cmax stands for the peak of the concentration-time curve. On to `Cc1nc(NC(=O)N2CCC[C@H]2C(N)=O)sc1-c1ccnc(C(C)(C)C(F)(F)F)c1` [BYL719, alpelisib], for which the P-gp inhibitor status result in data set [1] is given as “P-gp inhibitor”. Further, in data set [2] (setting [8]), the “T/C (Relative Tumor Growth Rate)” value is given as 52.85% and the “TGI (Tumor Growth Inhibition)” value stood at 52.46%. Moreover, the “Tumor Volume (Day 28)” value in data set [2] (day 28 after administration, oral once daily, Dorz 10 mg/kg, WX390 0.2 mg/kg, BYL719 25 mg/kg, vehicle 1582 mm^3) was 836 mm^3 and 836 ± 71 mm^3. The “metabolic route (in vitro studies)” value in data set [3] was “primarily metabolized through chemical degradation and enzymatic hydrolysis”. The Tmax in data set [4] (PI3Ki measured in combination group with Dorz 10 mg/kg (given 30 min before), WX390 0.2 mg/kg or BYL719 25 mg/kg oral) was 1.00 h. In data set [4] (setting [9]), the AUC(0-t) worked out at 24800 ng·h/mL, the half-life is 6.72 h and the Cmax was determined as 4210 ng/mL. In addition, in data set [4] (setting [10]), the AUC(0-t) turned out to be 29000 ng·h/mL, the half-life is 5.33 h and the Cmax turned out to be 4790 ng/mL. For the same compound, in data set [4] (female, BALB/c nude, mouse, monotherapy group, plasma, oral gavage once daily for four weeks, Dorz 10 mg/kg, WX390 0.2 mg/kg, BYL719 25 mg/kg, read-out: Tmax), the Tmax worked out at 1 h. In data set [5], the “rate of hyperglycemia, any grade” value is listed as 63.7%; the “rate of hyperglycemia, grades 3–4” value is 36.6%; the “treatment discontinuation rate due to hyperglycemia” value is reported as 6.3%. Moreover, in data set [6], the CYP3A4 inhibitor status result is on record as “not a CYP3A4 inhibitor”. Besides, in data set [7] (300 mg/day), the AUC0→24h is listed as 33,224 ng·h/mL and the Cmax is recorded as 2480 ng/mL. Also, in data set [7], the “apparent volume of distribution” value is given as 114 L, the clearance rate is on record as 9.2 L/h, the “effect of food intake on pharmacokinetic profile” value is reported as “does not significantly affect” and the “plasma protein binding rate” value was 89%. Further, the “dose proportionality of exposure” value in data set [7] (fed conditions, doses 30 to 450 mg) is given as “increases proportionally”.

These data come from publication PMC12196043, “In Vivo PK-PD and Drug–Drug Interaction Study of Dorzagliatin for the Management of PI3Kα Inhibitor-Induced Hyperglycemia” (Pharmaceuticals, 2025).
